Data on 14 molecules can be found in PubChem BioAssay AID330 (DTP/NCI, 2004).

The test system of this assay is P388 leukemia ip, CD2F1 mice, survival T/C. Kind of assay: NCI In Vivo Anticancer Drug Screen. Data for tumor model P388 Leukemia (intraperitoneal) in CD2F1 (CDF1) mice. To be noted: endpoint: median survival time, higher = longer survival. An outline of the steps:
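Mice carrying the transplanted tumor received test compound or vehicle. Survival was recorded in each group, and the value is the treated-group measurement divided by that of the vehicle-treated control group.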

Setting [1] is: dose: 25.0 mg/kg/injection, schedule: Q01DX009 (ip), vehicle: water.
The mark [2] stands for this setting: dose: 50.0 mg/kg/injection, schedule: Q01DX009 (ip), vehicle: saline.
[3] abbreviates: dose: 50.0 mg/kg/injection, schedule: Q01DX009 (ip), vehicle: water.
The mark [4] stands for this setting: dose: 100.0 mg/kg/injection, schedule: Q01DX009 (ip), vehicle: saline.
[5] abbreviates: dose: 200.0 mg/kg/injection, schedule: Q01DX009 (ip), vehicle: saline.
Setting [6] is: dose: 100.0 mg/kg/injection, schedule: Q01DX009 (ip), vehicle: other.
Where [7] appears, read: dose: 25.0 mg/kg/injection, schedule: Q01DX009 (ip), vehicle: Klucel (hydroxypropylcellulose) (HPC).
Where [8] appears, read: dose: 50.0 mg/kg/injection, schedule: Q01DX009 (ip), vehicle: Klucel (hydroxypropylcellulose) (HPC).
[9] abbreviates: dose: 100.0 mg/kg/injection, schedule: Q01DX009 (ip), vehicle: Klucel (hydroxypropylcellulose) (HPC).
The mark [10] stands for this setting: dose: 200.0 mg/kg/injection, schedule: Q01DX009 (ip), vehicle: Klucel (hydroxypropylcellulose) (HPC).

Values joined by “and” are separate entries in the source; they are usually repeats but may differ in a detail not shown here. Equal values may be shown once. Inconclusive results and toxic doses are left out. Peptide text beside a SMILES is read from it.

With `N#C[C@H](OC1OC(COC2OC(CO)C(O)C(O)C2O)C(O)C(O)C1O)c1ccccc1` (stereo not given in full), the T/C is 91 % of control (dose: 6.25 mg/kg/injection, schedule: Q01DX009 (oral), vehicle: water); 98 % of control (dose: 12.5 mg/kg/injection, schedule: Q01DX009 (oral), vehicle: saline); 95 % of control (dose: 12.5 mg/kg/injection, schedule: Q01DX009 (oral), vehicle: water); 100 % of control (dose: 25.0 mg/kg/injection, schedule: Q01DX009 (ip), vehicle: saline); 105 % of control under setting [1]; 115 % of control (dose: 25.0 mg/kg/injection, schedule: Q01DX009 (oral), vehicle: saline). The T/C (dose: 25.0 mg/kg/injection, schedule: Q01DX009 (oral), vehicle: water) is 93 % of control; the T/C under setting [2] is 100 % of control and 112 % of control; the T/C under setting [3] is 97 % of control; the T/C (dose: 50.0 mg/kg/injection, schedule: Q01DX009 (oral), vehicle: saline) was 118 % of control; the T/C (dose: 50.0 mg/kg/injection, schedule: Q01DX009 (oral), vehicle: suspension in saline) was 104 % of control; the T/C (dose: 50.0 mg/kg/injection, schedule: Q01DX009 (oral), vehicle: water) was 96 % of control. The T/C is 104 % of control and 107 % of control under setting [4]; 100 % of control (dose: 100.0 mg/kg/injection, schedule: Q01DX009 (ip), vehicle: water); 101 % of control (dose: 100.0 mg/kg/injection, schedule: Q01DX009 (oral), vehicle: saline); 100 % of control and 107 % of control (dose: 100.0 mg/kg/injection, schedule: Q01DX009 (oral), vehicle: suspension in saline); 105 % of control and 93 % of control (dose: 100.0 mg/kg/injection, schedule: Q01DX009 (oral), vehicle: water); 100 % of control and 109 % of control under setting [5]. In addition, the T/C by setting is: (dose: 200.0 mg/kg/injection, schedule: Q01DX009 (ip), vehicle: water) 101 % of control; (dose: 200.0 mg/kg/injection, schedule: Q01DX009 (oral), vehicle: saline) 100 % of control; (dose: 200.0 mg/kg/injection, schedule: Q01DX009 (oral), vehicle: water) 102 % of control and 104 % of control; (dose: 400.0 mg/kg/injection, schedule: Q01DX009 (ip), vehicle: saline) 102 % of control and 109 % of control; (dose: 400.0 mg/kg/injection, schedule: Q01DX009 (ip), vehicle: water) 100 % of control; (dose: 400.0 mg/kg/injection, schedule: Q01DX009 (oral), vehicle: suspension in saline) 100 % of control. Further, the T/C was 102 % of control and 108 % of control (dose: 800.0 mg/kg/injection, schedule: Q01DX009 (ip), vehicle: saline); 102 % of control (dose: 800.0 mg/kg/injection, schedule: Q01DX009 (ip), vehicle: water).
As for `CCCCN(C)/N=N/c1[nH]ncc1C(=O)OCC`, the T/C runs as follows: under setting [6], 120 % of control; (dose: 200.0 mg/kg/injection, schedule: Q01DX009 (ip), vehicle: other) 116 % of control.
For `CCOC(=O)c1c[nH]c2c(=O)c3cc(C)ccc3sc2c1=O`, the T/C reads like this: (dose: 50.0 mg/kg/injection, schedule: Q01DX001 (ip), vehicle: saline with Tween-80) 95 % of control; (dose: 100.0 mg/kg/injection, schedule: Q01DX001 (ip), vehicle: saline with Tween-80) 93 % of control; (dose: 200.0 mg/kg/injection, schedule: Q01DX001 (ip), vehicle: saline with Tween-80) 87 % of control.
With `O=NNc1ccc([N+](=O)[O-])cc1`, the T/C (dose: 3.12 mg/kg/injection, schedule: Q01DX009 (ip), vehicle: water) was 102 % of control; the T/C (dose: 6.25 mg/kg/injection, schedule: Q01DX009 (ip), vehicle: water) was 112 % of control and 121 % of control; the T/C under setting [1] was 152 % of control; the T/C under setting [3] was 159 % of control.
As to `Nc1nc(N)c2[nH]cnc2n1`, the T/C by setting is: (dose: 6.25 mg/kg/injection, schedule: Q01DX009 (ip), vehicle: other) 111 % of control; (dose: 12.5 mg/kg/injection, schedule: Q01DX009 (ip), vehicle: other) 100 % of control; (dose: 25.0 mg/kg/injection, schedule: Q01DX009 (ip), vehicle: other) 104 % of control; (dose: 50.0 mg/kg/injection, schedule: Q01DX009 (ip), vehicle: other) 95 % of control; (dose: 50.0 mg/kg/injection, schedule: Q01DX009 (ip), vehicle: saline with Tween-80) 90 % of control; (dose: 50.0 mg/kg/injection, schedule: Q04DX003 (ip), vehicle: saline with Tween-80) 108 % of control. The T/C under setting [6] was 106 % of control; the T/C (dose: 100.0 mg/kg/injection, schedule: Q01DX009 (ip), vehicle: saline with Tween-80) was 90 % of control; the T/C (dose: 100.0 mg/kg/injection, schedule: Q04DX003 (ip), vehicle: saline with Tween-80) was 108 % of control; the T/C (dose: 200.0 mg/kg/injection, schedule: Q01DX009 (ip), vehicle: saline with Tween-80) was 100 % of control; the T/C (dose: 200.0 mg/kg/injection, schedule: Q04DX003 (ip), vehicle: saline with Tween-80) was 108 % of control; the T/C (dose: 400.0 mg/kg/injection, schedule: Q01DX009 (ip), vehicle: saline with Tween-80) is 90 % of control. In addition, the T/C (dose: 400.0 mg/kg/injection, schedule: Q04DX003 (ip), vehicle: saline with Tween-80) was 91 % of control.
As to `O=C1CS(=O)(=O)C(c2cccc(F)c2)N1N1C(=O)CS(=O)(=O)C1c1cccc(F)c1` (stereo not given), the T/C (dose: 60.0 mg/kg/injection, schedule: Q01DX005 (ip), vehicle: saline with Tween-80) is 92 % of control; the T/C (dose: 120.0 mg/kg/injection, schedule: Q01DX005 (ip), vehicle: saline with Tween-80) was 95 % of control; the T/C (dose: 240.0 mg/kg/injection, schedule: Q01DX005 (ip), vehicle: saline with Tween-80) is 94 % of control.
As to `CNc1nc2c(s1)c1c(O)c3c(O)c(C)c4c(c32)C(=O)C(C)(O/C=C/C(OC)C(C)C(OC(C)=O)C(C)C(O)C(C)C(O)C(C)/C=C/C=C(/C)C(=O)N1)O4` (stereo not given), the T/C under setting [7] was 98 % of control, the T/C under setting [8] was 100 % of control, the T/C under setting [9] is 106 % of control and the T/C under setting [10] is 100 % of control.
Turning to `COc1c2c(c(O)c3c4c(c(C)cc13)C1OC3(C(OC)OC5CC(C)(O)C(OC6CC(C)(O)C(O)C(C)O6)C(C)O5)OC1C(OC)(O4)C31CO1)C(=O)C(O)CC2OC1CC(C)(O)C(OC(C)=O)C(C)O1` (stereo not given), the T/C runs as follows: (dose: 0.06 mg/kg/injection, schedule: Q01DX005 (ip), vehicle: saline) 158 % of control; (dose: 0.13 mg/kg/injection, schedule: Q01DX005 (ip), vehicle: saline) 155 % of control and 166 % of control.
`CC1CC(C(=O)c2ccoc2)C(=O)O1` (stereo not given): the T/C (dose: 12.5 mg/kg/injection, schedule: Q01DX005 (ip), vehicle: saline with Tween-80) is 92 % of control; the T/C (dose: 25.0 mg/kg/injection, schedule: Q01DX005 (ip), vehicle: saline with Tween-80) was 97 % of control; the T/C (dose: 50.0 mg/kg/injection, schedule: Q01DX005 (ip), vehicle: saline with Tween-80) was 101 % of control and 91 % of control.
Regarding `CC(NC(=O)C(Cc1ccccc1)NC(=O)C(N)CCCN=C(N)N)C(=O)O` (stereo not drawn) (H-Arg-Phe-Ala-OH; configuration not given here), the T/C (dose: 50.0 mg/kg/injection, schedule: Q01DX005 (ip), vehicle: saline) was 102 % of control; the T/C (dose: 100.0 mg/kg/injection, schedule: Q01DX005 (ip), vehicle: saline) was 101 % of control; the T/C (dose: 200.0 mg/kg/injection, schedule: Q01DX005 (ip), vehicle: saline) is 101 % of control.
On to `CCCCCCCCCCCCCCC[N+]1([O-])CCOCC1`, for which the T/C under setting [2] was 90 % of control and the T/C under setting [4] is 91 % of control.
Turning to `CC(C)(C)C(=O)OC/C=C\COC(=O)c1ccccc1`, the T/C under setting [7] is 101 % of control; the T/C under setting [8] was 104 % of control and 95 % of control and 96 % of control; the T/C under setting [9] is 103 % of control and 104 % of control and 122 % of control; the T/C under setting [10] was 111 % of control.
For `CC(=O)c1oc(C)nc1C`, the T/C is, setting by setting: under setting [2], 104 % of control; under setting [4], 100 % of control; under setting [5], 104 % of control.
For `N/C(=N\N=C/c1ccccc1)NN(Cc1ccccc1)N=O`, the T/C was 100 % of control (dose: 25.0 mg/kg/injection, schedule: Q01DX005 (ip), vehicle: Klucel (hydroxypropylcellulose) (HPC)); 92 % of control (dose: 50.0 mg/kg/injection, schedule: Q01DX005 (ip), vehicle: Klucel (hydroxypropylcellulose) (HPC)); 94 % of control (dose: 100.0 mg/kg/injection, schedule: Q01DX005 (ip), vehicle: Klucel (hydroxypropylcellulose) (HPC)).
